What is called IC50 is the concentration at which inhibition is half-maximal. A higher IC50 goes with weaker potency in that assay.

Where a name gives a salt, the structure may show the parent alone.

One assay concerns P. Falciparum NF54. Nature of the assay: Plasmodium falciparum in vitro assay ([3H]-hypoxanthine incorporation). As to conditions: P. Falciparum NF54, erythrocytic stages in human red blood cells, 50% human serum. The format is cell-based. Put shortly:
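This in vitro antimalarial assay used P. falciparum erythrocytic stages cultured in human erythrocytes and measured [3H]-hypoxanthine incorporation. Radioactivity on the dried filters, placed in plastic foil with 10 mL scintillation fluid, was counted in a Betaplate liquid scintillation counter. Sigmoidal inhibition curves built in Microsoft Excel gave the IC50.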
On to `CN1CCC(N2CCC(N(Cc3ccc(N(C)c4ccncc4)cc3)C(=O)/C=C/c3ccc(C(F)(F)F)cc3)C(F)C2)CC1` (racemic) [Example 78, (±)-(E)-N-(cis-3-fluoro-1′-methyl-[1,4′-bipiperidin]-4-yl)-N-(4-(methyl(pyridin-4-yl)amino)benzyl)-3-(4-(trifluoromethyl)phenyl)acrylamide], for which 12 nM corresponded to half-maximal inhibition (IC50). The same measure, in the same setting: the result for `CN(c1ccncc1)c1ccc(CN(C(=O)/C=C/c2ccc(C(F)(F)F)cc2)[C@H]2CCCNC2)cc1` [Example 2, (E)-N-[4-(Methyl-pyridin-4-yl-amino)-benzyl]-N-(S)-piperidin-3-yl-3-(4-trifluoromethyl-phenyl)-acrylamide] reads 82 nM.

The same assay, now with this note: Plasmodium falciparum, Erythrocyte, P. Falciparum NF54, erythrocytic stages in human red blood cells, 50% human serum.
Compound `CN(c1ccncc1)c1ccc(CN(C(=O)/C=C/c2ccc(C(F)(F)F)nc2)C2CCN(Cc3ccccc3)CC2)cc1` [Example 161, (E)-N-(1-Benzyl-piperidin-4-yl)-N-[4-(methyl-pyridin-4-yl-amino)-benzyl]-3-(6-trifluoromethyl-pyridin-3-yl)-acrylamide] gave an IC50 of 58 nM. With `Cc1ncc(-c2ccc(CN(C(=O)/C=C/c3ccc(C(F)(F)F)cc3)C3CCN(C4CCCC4)CC3)cc2)s1` [Example 201, (E)-N-(1-Cyclopentyl-piperidin-4-yl)-N-[4-(2-methyl-thiazol-5-yl)-benzyl]-3-(4-trifluoromethyl-phenyl)-acrylamide], the IC50 worked out at 357 nM. Same read-out and setting: then `CN(C)CCN1CCC(N(Cc2ccc(N(C)c3ccncc3)cc2)C(=O)/C=C/c2ccc(C(F)(F)F)cc2)CC1` [Example 195, (E)-N-[1-(2-Dimethylamino-ethyl)-piperidin-4-yl]-N-[4-(methyl-pyridin-4-yl-amino)-benzyl]-3-(4-trifluoromethyl-phenyl)-acrylamide formate], with 57 nM; and `CN(c1ccncc1)c1ccc(CN(C(=O)/C=C/c2ccc(C(C)(C)C)cc2)C2CCN(Cc3ccccc3)CC2)cc1` [Example 144, (E)-N-(1-Benzyl-piperidin-4-yl)-3-(4-tert-butyl-phenyl)-N-[4-(methyl-pyridin-4-yl-amino)-benzyl]-acrylamide], with 174 nM.

As for `CC(C)CCN1CC2(CC(N(Cc3ccc(N(C)c4ccncc4)cc3)C(=O)/C=C/c3ccc(C(F)(F)F)cc3)C2)C1` [Example 75, (E)-N-(2-isopentyl-2-azaspiro[3.3]heptan-6-yl)-N-(4-(methyl(pyridin-4-yl)amino)benzyl)-3-(4-(trifluoromethyl)phenyl)acrylamide], the IC50 was determined as 30 nM.

For `CN(c1ccncc1)c1ccc(CN(C(=O)/C=C/c2ccc(S(C)(=O)=O)cc2)C2CCN(Cc3ccccc3)CC2)cc1` [Example 162, (E)-N-(1-Benzyl-piperidin-4-yl)-3-(4-methanesulfonyl-phenyl)-N-[4-(methyl-pyridin-4-yl-amino)-benzyl]-acrylamide], half-maximal inhibition (IC50) required 160 nM. On the same count and under the same terms, the result for `Cc1cc(Nc2ccc(CN(C(=O)/C=C/c3ccc(C(F)(F)F)cc3)C3CCN(C4CCCC4)C3)cc2)ccn1` (racemic) [Example 101, (±)-(E)-N-(1-Cyclopentyl-pyrrolidin-3-yl)-N-[4-(2-methyl-pyridin-4-ylamino)-benzyl]-3-(4-trifluoromethyl-phenyl)-acrylamide] reads 43 nM; that for `CCCOc1ccc(/C=C/C(=O)N(Cc2ccc(N(C)c3ccncc3)cc2)C2CCN(Cc3ccccc3)CC2)cc1` [Example 148, (E)-N-(1-Benzyl-piperidin-4-yl)-N-[4-(methyl-pyridin-4-yl-amino)-benzyl]-3-(4-propoxy-phenyl)-acrylamide], 61 nM. `CN1CCC(N2CCC(N(Cc3ccc(N(C)c4ccncc4)nc3)C(=O)/C=C/c3ccc(C(F)(F)F)cc3)CC2)CC1` [Example 112, (E)-N-(1′-Methyl-[1,4′]bipiperidinyl-4-yl)-N-[6-(methyl-pyridin-4-yl-amino)-pyridin-3-ylmethyl]-3-(4-trifluoromethyl-phenyl)-acrylamide]: the IC50 was 39 nM. This IC50 lies about 1.6-fold lower than the previous one.

`Cc1nc(CN2CCC(N(Cc3ccc(N(C)c4ccncc4)cc3)C(=O)/C=C/c3ccc(C(F)(F)F)cc3)CC2)co1` [Example 4, (E)-N-[1-(2-Methyl-oxazol-4-ylmethyl)-piperidin-4-yl]-N-[4-(methyl-pyridin-4-yl-amino)-benzyl]-3-(4-trifluoromethyl-phenyl)-acrylamide] yielded an IC50 of 133 nM. Same read-out and setting: then `Cc1nn(C)c(C)c1/C=C/C(=O)N(Cc1ccc(N(C)c2ccncc2)cc1)C1CCN(Cc2ccccc2)CC1` [Example 165, (E)-N-(1-Benzyl-piperidin-4-yl)-N-[4-(methyl-pyridin-4-yl-amino)-benzyl]-3-(1,3,5-trimethyl-1H-pyrazol-4-yl)-acrylamide], with 192 nM. The compound `CN1CCC(N(C)c2ccc(CN(C(=O)/C=C/c3ccc(C(F)(F)F)cc3)C3CCN(C4CCCC4)CC3)cn2)CC1` [Example 106, (E)-N-(1-Cyclopentyl-piperidin-4-yl)-N-{6-[methyl-(1-methyl-piperidin-4-yl)-amino]-pyridin-3-ylmethyl}-3-(4-trifluoromethyl-phenyl)-acrylamide] displayed an IC50 of 348 nM.

In the case of `O=C(/C=C/c1ccc(C(F)(F)F)cc1)N(Cc1ccc(Oc2ccncc2)cc1)C1CCN(C2CCCC2)CC1` [Example 207, (E)-N-(1-Cyclopentyl-piperidin-4-yl)-N-[4-(pyridin-4-yloxy)-benzyl]-3-(4-trifluoromethyl-phenyl)-acrylamide], the IC50 amounted to 412 nM. Turning to `Cc1nccc(Nc2ccc(CN(C(=O)/C=C/c3ccc(C(F)(F)F)cc3)C3CCN(C4CCCC4)CC3)cn2)n1` [Example 108, (E)-N-(1-Cyclopentyl-piperidin-4-yl)-N-[6-(2-methyl-pyrimidin-4-ylamino)-pyridin-3-ylmethyl]-3-(4-trifluoromethyl-phenyl)-acrylamide], the IC50 worked out at 430 nM. `CN1CCC(Nc2ccc(CN(C(=O)/C=C/c3ccc(C(F)(F)F)cc3)C3CCN(C4CCCC4)CC3)cn2)CC1` [Example 105, (E)-N-(1-Cyclopentyl-piperidin-4-yl)-N-[6-(1-methyl-piperidin-4-ylamino)-pyridin-3-ylmethyl]-3-(4-trifluoromethyl-phenyl)-acrylamide] came in with an IC50 of 152 nM. Still for that read-out and setting: the result for `CN(c1ccncc1)c1ccc(CN(C(=O)/C=C/c2ccc(C(F)(F)F)cc2)C2CCN(Cc3cnn(-c4ccccc4)c3)CC2)cc1` [Example 18, (E)-N-[4-(Methyl-pyridin-4-yl-amino)-benzyl]-N-[1-(1-phenyl-1H-pyrazol-4-ylmethyl)-piperidin-4-yl]-3-(4-trifluoromethyl-phenyl)-acrylamide] reads 51 nM. As for `CN(c1ccncc1)c1ccc(CN(CC2CCN(C3CCCC3)CC2)C(=O)/C=C/c2ccc(C(F)(F)F)cc2)cc1` [Example 188, (E)-N-(1-Cyclopentyl-piperidin-4-ylmethyl)-N-[4-(methyl-pyridin-4-yl-amino)-benzyl]-3-(4-trifluoromethyl-phenyl)-acrylamide], the IC50 stood at 40 nM. Same read-out and setting: the result for `CN(c1ccncc1)c1ccc(CN(C(=O)/C=C/c2ccc(C(F)(F)F)cc2)[C@@H]2CCCN(C3CCCC3)C2)cc1` [Example 59, (R,E)-N-(1-cyclopentylpiperidin-3-yl)-N-(4-(methyl(pyridin-4-yl)amino)benzyl)-3-(4-(trifluoromethyl)phenyl)acrylamide] reads 80 nM.

`CN(c1ccncc1)c1ccc(CN(C(=O)/C=C/c2ccc(C(F)(F)F)cc2)C2CCN(C3CCCC3)CC2)cc1` [Example 5, (E)-N-(1-Cyclopentyl-piperidin-4-yl)-N-[4-(methyl-pyridin-4-yl-amino)-benzyl]-3-(4-trifluoromethyl-phenyl)-acrylamide] returned an IC50 of 11 nM. This IC50 is about 7.3-fold lower than that of the compound before. `Cc1cc(Nc2ccc(CN(C(=O)/C=C/c3ccc(C(F)(F)F)cc3)C3CCN(Cc4coc(C)n4)CC3)cc2)ccn1` [Example 36, (E)-N-[1-(2-Methyl-oxazol-4-ylmethyl)-piperidin-4-yl]-N-[4-(2-methyl-pyridin-4-ylamino)-benzyl]-3-(4-trifluoromethyl-phenyl)-acrylamide] gave an IC50 of 143 nM. Same read-out and setting: the result for `Cc1cc(Nc2ccc(CN(C(=O)/C=C/c3ccc(C(F)(F)F)cc3)C3CCN(Cc4cc(C)nn4C)CC3)cc2)ccn1` [Example 43, (E)-N-[1-(2,5-Dimethyl-2H-pyrazol-3-ylmethyl)-piperidin-4-yl]-N-[4-(2-methyl-pyridin-4-ylamino)-benzyl]-3-(4-trifluoromethyl-phenyl)-acrylamide] reads 84 nM. The same measure, in the same setting: then `O=C(/C=C/c1ccc(C(F)(F)F)cc1)N(Cc1ccc(Nc2ccncc2)nc1)C1CCN(C2CCCC2)CC1` [Example 103, (E)-N-(1-Cyclopentyl-piperidin-4-yl)-N-[6-(pyridin-4-ylamino)-pyridin-3-ylmethyl]-3-(4-trifluoromethyl-phenyl)-acrylamide], with 44 nM; and `Cc1cccc(/C=C/C(=O)N(Cc2ccc(N(C)c3ccncc3)cc2)C2CCN(Cc3ccccc3)CC2)c1` [Example 159, (E)-N-(1-Benzyl-piperidin-4-yl)-N-[4-(methyl-pyridin-4-yl-amino)-benzyl]-3-m-tolyl-acrylamide], with 195 nM.

On to `CN(c1ccncc1)c1ccc(CN(C(=O)/C=C/c2ccc(C(F)(F)F)cc2)[C@H]2CCN(C3CCCC3)C[C@H]2F)cc1` (racemic) [Example 76, (±)-(E)-N-(cis-1-cyclopentyl-3-fluoropiperidin-4-yl)-N-(4-(methyl(pyridin-4-yl)amino)benzyl)-3-(4-(trifluoromethyl)phenyl)acrylamide], for which the IC50 came out at 50 nM. On the same count and under the same terms, then `Cc1cc(-c2ccc(CN(C(=O)/C=C/c3ccc(C(F)(F)F)cc3)C3CCN(C4CCCC4)CC3)cc2)ccn1` [Example 196, (E)-N-(1-Cyclopentyl-piperidin-4-yl)-N-[4-(2-methyl-pyridin-4-yl)-benzyl]-3-(4-trifluoromethyl-phenyl)-acrylamide], with 248 nM; and `CN1CCC(N2CCC(N(Cc3ccc(N(C)c4ccncc4)cc3)C(=O)/C=C/c3ccc(C#N)cc3)CC2)CC1` [Example 179, (E)-3-(4-Cyano-phenyl)-N-(1′-methyl-[1,4′]bipiperidinyl-4-yl)-N-[4-(methyl-pyridin-4-yl-amino)-benzyl]-acrylamide], with 54 nM.
